Key:
Type in all cases: functional
Spodoptera exigua [1] = experiment: Antifeedant activity against third-instar larval stage of Spodoptera exigua infested compound-treated leaf assessed as time required to stop feeding at 187 mg a.i/L after 48 hr by leaf disk assay (reference value: > 2880 min)
Helicoverpa zea [2] = experiment: Antifeedant activity against third-instar larval stage of Helicoverpa zea (corn earworm) infested compound-treated leaf assessed as reduction in feeding damage at 187 mg a.i/L after 48 hr by leaf disk assay relative to untreated control; design: scale not given: the % may be the effect or the level left
Trichoplusia ni [3] = experiment: Antifeedant activity against third-instar larval stage of Trichoplusia ni (cabbage looper) infested compound-treated leaf assessed as time required to stop feeding at 187 mg a.i/L after 48 hr by leaf disk assay (reference value: > 2880 min)
Spodoptera exigua [4] = experiment: Antifeedant activity against third-instar larval stage of Spodoptera exigua infested compound-treated leaf assessed as reduction in feeding damage at 187 mg a.i/L after 48 hr by leaf disk assay relative to untreated control; design: scale not given: the % may be the effect or the level left
Trichoplusia ni [5] = experiment: Antifeedant activity against third-instar larval stage of Trichoplusia ni (cabbage looper) infested compound-treated leaf assessed as reduction in feeding damage at 187 mg a.i/L after 48 hr by leaf disk assay relative to untreated control; design: scale not given: the % may be the effect or the level left
Helicoverpa zea [6] = experiment: Antifeedant activity against third-instar larval stage of Helicoverpa zea (corn earworm) infested compound-treated leaf assessed as time required to stop feeding at 187 mg a.i/L after 48 hr by leaf disk assay (reference value: > 2880 min)
Plutella xylostella [7] = experiment: Antifeedant activity against third-instar larval stage of Plutella xylostella (diamondback moth) infested compound-treated leaf assessed as time required to stop feeding at 167 mg a.i/L after 48 hr by leaf disk assay (reference value: > 2880 min)
Trichoplusia ni [8] = experiment: Antifeedant activity against third-instar larval stage of Trichoplusia ni (cabbage looper) infested compound-treated leaf assessed as reduction in feeding damage at 167 mg a.i/L after 48 hr by leaf disk assay relative to untreated control; design: scale not given: the % may be the effect or the level left
Plutella xylostella [9] = experiment: Antifeedant activity against third-instar larval stage of Plutella xylostella (diamondback moth) infested compound-treated leaf assessed as reduction in feeding damage at 167 mg a.i/L after 48 hr by leaf disk assay relative to untreated control; design: scale not given: the % may be the effect or the level left
Helicoverpa zea [10] = experiment: Antifeedant activity against third-instar larval stage of Helicoverpa zea (corn earworm) infested compound-treated leaf assessed as time required to stop feeding at 167 mg a.i/L after 48 hr by leaf disk assay (reference value: > 2880 min)
Trichoplusia ni [11] = experiment: Antifeedant activity against third-instar larval stage of Trichoplusia ni (cabbage looper) infested compound-treated leaf assessed as time required to stop feeding at 167 mg a.i/L after 48 hr by leaf disk assay (reference value: > 2880 min)
Helicoverpa zea [12] = experiment: Antifeedant activity against third-instar larval stage of Helicoverpa zea (corn earworm) infested compound-treated leaf assessed as reduction in feeding damage at 167 mg a.i/L after 48 hr by leaf disk assay relative to untreated control; design: scale not given: the % may be the effect or the level left
Spodoptera exigua [13] = experiment: Antifeedant activity against third-instar larval stage of Spodoptera exigua infested compound-treated leaf assessed as time required to stop feeding at 167 mg a.i/L after 48 hr by leaf disk assay (reference value: > 2880 min)
Spodoptera exigua [14] = experiment: Antifeedant activity against third-instar larval stage of Spodoptera exigua infested compound-treated leaf assessed as reduction in feeding damage at 167 mg a.i/L after 48 hr by leaf disk assay relative to untreated control; design: scale not given: the % may be the effect or the level left
Plutella xylostella [15] = experiment: Antifeedant activity against third-instar larval stage of Plutella xylostella (diamondback moth) infested compound-treated leaf assessed as reduction in feeding damage at 40 mg a.i/L after 48 hr by leaf disk assay relative to untreated control; design: scale not given: the % may be the effect or the level left
Plutella xylostella [16] = experiment: Antifeedant activity against third-instar larval stage of Plutella xylostella (diamondback moth) infested compound-treated leaf assessed as time required to stop feeding at 40 mg a.i/L after 48 hr by leaf disk assay (reference value: > 2880 min)
Helicoverpa zea [17] = experiment: Antifeedant activity against third-instar larval stage of Helicoverpa zea (corn earworm) infested compound-treated leaf assessed as time required to stop feeding at 40 mg a.i/L after 48 hr by leaf disk assay (reference value: > 2880 min)
Spodoptera exigua [18] = experiment: Antifeedant activity against third-instar larval stage of Spodoptera exigua infested compound-treated leaf assessed as time required to stop feeding at 40 mg a.i/L after 48 hr by leaf disk assay (reference value: > 2880 min)
Spodoptera exigua [19] = experiment: Antifeedant activity against third-instar larval stage of Spodoptera exigua infested compound-treated leaf assessed as reduction in feeding damage at 40 mg a.i/L after 48 hr by leaf disk assay relative to untreated control; design: scale not given: the % may be the effect or the level left
Trichoplusia ni [20] = experiment: Antifeedant activity against third-instar larval stage of Trichoplusia ni (cabbage looper) infested compound-treated leaf assessed as reduction in feeding damage at 40 mg a.i/L after 48 hr by leaf disk assay relative to untreated control; design: scale not given: the % may be the effect or the level left
Helicoverpa zea [21] = experiment: Antifeedant activity against third-instar larval stage of Helicoverpa zea (corn earworm) infested compound-treated leaf assessed as reduction in feeding damage at 40 mg a.i/L after 48 hr by leaf disk assay relative to untreated control; design: scale not given: the % may be the effect or the level left
Trichoplusia ni [22] = experiment: Antifeedant activity against third-instar larval stage of Trichoplusia ni (cabbage looper) infested compound-treated leaf assessed as time required to stop feeding at 40 mg a.i/L after 48 hr by leaf disk assay (reference value: > 2880 min)

`CC(C)[C@H](C(=O)O[C@H](C#N)c1cccc(Oc2ccccc2)c1)c1ccc(Cl)cc1` gave a Time (Spodoptera exigua [1]) of 6.4 min, an Activity (Helicoverpa zea [2]) of 99.9% and a Time (Trichoplusia ni [3]) of 5 min. The Activity (Spodoptera exigua [4]) was 99.9%, the Activity (Trichoplusia ni [5]) was 99.9% and the Time (Helicoverpa zea [6]) was 3.4 min.
Molecule `CNC(=O)c1cc(Cl)cc(C)c1NC(=O)c1cc(Br)nn1-c1ncccc1Cl` [CHLORANTRANILIPROLE] has a Time (Plutella xylostella [7]) of 15.4 min, an Activity (Trichoplusia ni [8]) of 99.4% and an Activity (Plutella xylostella [9]) of 99.4%. For the same molecule, the Time (Helicoverpa zea [10]) was 20.3 min, the Time (Trichoplusia ni [11]) was 23.4 min and the Activity (Helicoverpa zea [12]) was 99.2%. For the same molecule, the Time (Spodoptera exigua [13]) was 25.3 min and the Activity (Spodoptera exigua [14]) was 99%.
With `CC[C@H](C)C1O[C@]2(C=C[C@@H]1C)C[C@@H]1C[C@@H](C/C=C(\C)[C@@H](O[C@H]3C[C@H](OC)[C@@H](O[C@H]4C[C@H](OC)[C@H](NC)[C@H](C)O4)[C@H](C)O3)[C@@H](C)/C=C/C=C3\CO[C@@H]4[C@H](O)C(C)=C[C@@H](C(=O)O1)[C@]34O)O2.O=C(O)c1ccccc1` (some centres not stated) [EMAMECTIN BENZOATE] the Activity (Plutella xylostella [15]) was 97.9%, the Time (Plutella xylostella [16]) was 55.9 min and the Time (Helicoverpa zea [17]) was 151.8 min. For the same molecule, the Time (Spodoptera exigua [18]) was 139 min, the Activity (Spodoptera exigua [19]) was 92.4% and the Activity (Trichoplusia ni [20]) was 95.7%. It also gave an Activity (Helicoverpa zea [21]) of 93.9% and a Time (Trichoplusia ni [22]) of 91.9 min.

Source: ChEMBL document CHEMBL3044623, “Feeding cessation effects of chlorantraniliprole, a new anthranilic diamide insecticide, in comparison with several insecticides in distinct chemical classes and mode-of-action groups” (2009)
